# Measured values: patent publication US5994336A, “Method of inhibiting proliferation of cells by administering an aminosterol compound” (priority 1995, dated 1999)
# Legend:
# [1] = test system: human foreskin fibroblasts; experiment: Growth inhibition in vitro (absorbance at 600 nm); assay type: cell-based; conditions: 10 μg/ml; FIG. 3C
# [2] = test system: human epithelial cell line MCF 10A; experiment: Growth inhibition in vitro (absorbance at 600 nm); assay type: cell-based; conditions: 10 μg/ml; FIG. 3B
# [3] = test system: human melanoma 1205Lu; experiment: Suppression of growth of human melanoma in RAG-1 mice; assay type: in vivo
# Description: As apparent from FIG. 5, melanoma 1205Lu develops aggressively in RAG-1 mice after implantation.
# [4] = test system: vitelline capillaries; experiment: Chick embryo vitelline capillary regression assay; assay type: in vivo; set-up: key to vascular reactivity: +: Vascular reactivity; 0: No vascular reactivity; +/-: Equivocal reactivity; conditions: for vascular reactivity: 60 minutes
# How it was run: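 Compounds were applied to 3-day chick embryos in 0.1 ml of 15% Ficol 400 and PBS. Regression of vitelline capillaries was scored visually 60 minutes later.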
smiles,measurement,setting,value
CC(C)[C@@H](CC[C@@H](C)[C@H]1CC[C@H]2[C@@H]3[C@H](O)C[C@H]4C[C@@H](NCCCNCCCCN)CC[C@]4(C)[C@H]3CC[C@]12C)OS(=O)(=O)O [squalamine],growth of fibroblast line,[1],no effect
same,growth of epithelial line,[2],no effect
same,suppression of tumor growth,"[3]; 10, 20, 40 mg/kg/d, FIG. 5",clear suppression of tumor growth in a dose-dependent fashion
same,reversibility after cessation of treatment,[3]; words,reversible
same,activity on vitelline capillaries,[4],especially active
same,vascular reactivity,[4]; 0.001 μg applied,0
same,vascular reactivity,[4]; 0.01 μg applied,+
same,vascular reactivity,[4]; 0.1 μg applied,+
same,vascular reactivity,[4]; 1 μg applied,+
same,vascular reactivity,[4]; 10 μg applied,+
same,disruption of vitelline capillaries,[4]; 3- to 5-day chick embryos,found to disrupt vitelline capillaries
same,lag period before capillary constriction,[4]; 3-day chick embryo,around 15 minutes
same,hemolysis,"[4]; chick embryo, microscopic observation",absence of hemolysis
